Consider 2 compounds from patent publication US9918941B2 (Eastbrand Holding GMBH, priority 2012, dated 2018).

Data set [1] deals with Carrageenin-induced edema in the paw. Nature of the data set: Anti-inflammatory activity, Carrageenin-induced edema in the paw (Winter, Risley and Nuss). In kind it is in vivo, Sprague Dawley rats. As to conditions: rats, ± e.s. Background: The carrageenan paw model is a standard test of acute inflammation.
The next data set deals with gastric mucus. Nature of the data set: Gastric tolerance, Pisanti-Volterra method. As to conditions: rats, score 0 (normal stomach) to 6 (perforated ulcer). In kind it is in vivo, Sprague Dawley rats. The text has this: The following scores were attributed according to the type and intensity of the injury observed: • Score 0=Normal stomach without injury; 1=Haemorrhaging points; 2=Haemorrhaging diffusion (reddening of the surface); 3=1-5 small ulcers (<3 mm); 4=Large number of small ulcers or a deep isolated ulceration; 5=Many ulcers of various size; 6=Perforated ulcer. • The degree of gastric injury is defined by the average score; the higher score corresponds to a greater gastric injury

Data set [2] deals with acute chemical visceral pain model. Nature of the data set: Analgesic activity, abdominal contraction test with acetic acid (Writhing Test). The format is in vivo, Swiss rats. As to conditions: inhibition of number of contractions vs control animals. As for the experimental part: Adult male Swiss rats were used in the assay, 28-30 g in weight, 10 animals per treatment group or for each assessed dose level. 1-The analgesic activity/action was assessed by using an acute chemical visceral pain model, the abdominal contraction test with acetic acid (Writhing Test) (Miranda, H; Puig, […]. Synergism between paracetamol and nonsteroidal anti-inflammatory drugs in experimental acute pain. Pain (12) 2006. 22-28) ([…]. The Type of Analgesic-Receptor interaction involved in certain analgesic assays. European Journal of Pharmacology 16 (1971) 63-66. North Holland Publishing Company) […] The antinociceptive activity was expressed as the inhibition percentage of the number of contractions observed in the animals in the groups treated at each of the assessed dose levels, with respect to the number of contractions in the study control animals.

A short description of data set [3]: Degradation / related substances (USP analytical method). The format is physicochemical. As to conditions: reaction mixture up to 60° C. and gelation, finished microcapsules. The source says: No related substances derived from the degradation of diclofenac mentioned in USP were detected in HPSC.
Only 2% were found above 1000, and only 1% under 250 micron.

As for `O=C(O)Cc1ccccc1Nc1c(Cl)cccc1Cl` [diclofenac potassium], the “% Inflammation inhibition 1st hour” value in data set [1] (Dose: 12.5 mg/kg) worked out at 37.2 ± 12.2%. Also, the “% Inflammation inhibition 2nd hour” value in data set [1] (Dose: 12.5 mg/kg) came out at 42.5 ± 13.1%; in data set [1] (Dose: 25.0 mg/kg), 36.4 ± 8.49%; in data set [1] (Dose: 50.0 mg/kg), 45.8 ± 8.3%. Moreover, the “% Inflammation inhibition 3rd hour” value in data set [1] (Dose: 12.5 mg/kg) is reported as 28.3 ± 9.5%; in data set [1] (Dose: 25.0 mg/kg), 28.0 ± 13.56%; in data set [1] (Dose: 50.0 mg/kg), 41.4 ± 6.9%. The “% Inflammation inhibition 4th hour” value in data set [1] (Dose: 12.5 mg/kg) is 30.6 ± 9.8%; in data set [1] (Dose: 25.0 mg/kg), 23.3 ± 6.66%; in data set [1] (Dose: 50.0 mg/kg), 47.2 ± 5.2%. Besides, the “% Inflammation inhibition 5th hour” value came to 29.7 ± 10.8% in data set [1] (Dose: 12.5 mg/kg), 15.7 ± 5.61% in data set [1] (Dose: 25.0 mg/kg) and 43.2 ± 4.5% in data set [1] (Dose: 50.0 mg/kg). Moreover, the “Degree of Gastric Injury Avg. score ± e.s.” value amounted to 2.64 ± 0.59 in the data set on gastric mucus (Dose: 12.5 mg/kg) and 3.81 ± 0.35 with gastric mucus (Dose: 25.0 mg/kg). Also, the “Degree of Gastric Injury Avg Score ± e.s.” value in the data set on gastric mucus (Dose: 50.0 mg/kg) was 4.80 ± 0.50. The “Analgesic Activity (% Inhibition) Avg. Score ± e.s.” value in data set [2] (Dose: 12.5 mg/kg) worked out at 53.23 ± 5.53%; in data set [2] (Dose: 25.0 mg/kg) it was 67.26 ± 4.62%.

Consider `O=C(O)Cc1ccccc1Nc1c(Cl)cccc1Cl` [diclofenac, 2-((2,6 dichlorophenyl)amino)phenyl acetic (diclofenac) acid], for which, in data set [3], the “degradation / related substances” value is given as “not degraded”.
